Here are results for 22 molecules from ChEMBL document CHEMBL4177587, “SIRT6 inhibitors with salicylate-like structure show immunosuppressive and chemosensitizing effects” (Bioorg Med Chem, 2017).

Data set [1] concerns the target T1, NAD-dependent protein deacylase sirtuin-6 (Homo sapiens, UniProt Q8N6T7). As to the kind of experiment: Inhibition of human recombinant SIRT6 assessed as reduction in NAD+-dependent deacetylase activity at 200 uM using Arg-His-Lys-Lys(epsilon-acetyl)-AMC substrate and NAD+ by fluorescence based assay.
For data set [2], the target named is T1, NAD-dependent protein deacylase sirtuin-6. As to the kind of experiment: Inhibition of SIRT6 in human BxPC3 cells assessed as increase in H3K9 acetylation by immunoblotting relative to untreated control. Set-up: concentration or dose not given beside the values. Format: cell-based.
Data set [3] shares this target. As to the kind of experiment: Inhibition of SIRT6 in human BxPC3 cells assessed as increase in 2-NBDG uptake at 100 uM incubated for 18 hrs by glucose uptake assay. Format: cell-based.
Data set [4] is filed under the species Homo sapiens. As to the kind of experiment: Selectivity index, ratio of IC50 for human recombinant SIRT2 to IC50 for human recombinant SIRT6.
In data set [5] the target is T1, NAD-dependent protein deacylase sirtuin-6. As to the kind of experiment: Inhibition of SIRT6 in human BxPC3 cells assessed as reduction in TNFalpha production at 100 uM incubated for 18 hrs by ELISA method. Type of data set: cell-based.
For data set [6], the species on record is Homo sapiens. As to the kind of experiment: Selectivity index, ratio of IC50 for human recombinant SIRT1 to IC50 for human recombinant SIRT6.
The nature of data set [7]: Intrinsic aqueous solubility in all polymers solutions. Format: physicochemical.
Data set [8] in a line: Intrinsic aqueous solubility in PBS at pH 7.4. Type of data set: physicochemical.
Data set [9] can be described thus: Fraction unbound in human plasma at 10 ug/ml by rapid equilibrium dialysis. Type of data set: ADME, cell-free.
Data set [10] is described as follows: Fraction unbound in mouse plasma at 10 ug/ml by rapid equilibrium dialysis. Format: ADME, cell-free.
The nature of data set [11]: Fraction unbound in mouse plasma at 1 ug/ml by rapid equilibrium dialysis. Type of data set: ADME, cell-free.
Data set [12] in a line: Intrinsic aqueous solubility in surfactant in 9% TPGS. Format: physicochemical. The note with it: 9% TPGS surfactant solution.
For data set [13], the target named is T2, NAD-dependent protein deacetylase sirtuin-1 (Homo sapiens, UniProt Q96EB6).
T2 sequence (Q96EB6 whole entry): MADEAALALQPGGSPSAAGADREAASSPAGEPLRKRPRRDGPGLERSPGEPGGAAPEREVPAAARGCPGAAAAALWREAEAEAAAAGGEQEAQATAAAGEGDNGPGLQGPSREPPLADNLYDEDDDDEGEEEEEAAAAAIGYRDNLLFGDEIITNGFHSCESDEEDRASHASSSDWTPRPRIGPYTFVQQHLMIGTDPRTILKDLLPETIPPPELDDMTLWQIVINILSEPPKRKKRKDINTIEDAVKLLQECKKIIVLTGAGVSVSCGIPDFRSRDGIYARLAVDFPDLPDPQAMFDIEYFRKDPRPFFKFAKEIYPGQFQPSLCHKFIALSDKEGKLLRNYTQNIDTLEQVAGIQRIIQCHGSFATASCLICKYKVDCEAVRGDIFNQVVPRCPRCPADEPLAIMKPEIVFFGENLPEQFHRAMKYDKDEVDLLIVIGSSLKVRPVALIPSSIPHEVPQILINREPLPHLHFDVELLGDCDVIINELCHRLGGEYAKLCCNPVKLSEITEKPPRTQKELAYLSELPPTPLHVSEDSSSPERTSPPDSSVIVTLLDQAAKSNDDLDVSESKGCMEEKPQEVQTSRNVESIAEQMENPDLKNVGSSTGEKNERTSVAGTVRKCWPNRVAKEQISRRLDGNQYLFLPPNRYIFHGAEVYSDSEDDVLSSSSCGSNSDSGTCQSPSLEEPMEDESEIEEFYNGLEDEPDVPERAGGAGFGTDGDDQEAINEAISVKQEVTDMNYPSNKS
The experiment in a line: Inhibition of human recombinant SIRT1 assessed as reduction in NAD+-dependent deacetylase activity using Arg-His-Lys-Lys(epsilon-acetyl)-AMC substrate and NAD+ by fluorescence based assay.

Data set [14] is described as follows: Partition coefficient, log P of the compound. Type of data set: physicochemical. Conditions: octanol/water.
Data set [15] is described as follows: Ionisation constant, pKa of the compound. Format: physicochemical.
In data set [16] the target is T1, NAD-dependent protein deacylase sirtuin-6. The experiment in a line: Inhibition of human recombinant SIRT6 assessed as reduction in NAD+-dependent deacetylase activity using Arg-His-Lys-Lys(epsilon-acetyl)-AMC substrate and NAD+ by fluorescence based assay.
Data set [17] in a line: Intrinsic aqueous solubility in 23% Kleptose HPB. Type of data set: physicochemical.
Data set [18] in a line: Stability in mouse plasma assessed as half life at 1 uM at 37 degC measured after 4 hrs. Type of data set: ADME, cell-free.
Data set [19] in a line: Fraction unbound in human plasma at 1 ug/ml by rapid equilibrium dialysis. Type of data set: ADME, cell-free.
Data set [20] addresses T3, NAD-dependent protein deacetylase sirtuin-2 (Homo sapiens, UniProt Q8IXJ6).
T3 sequence (Q8IXJ6 whole entry): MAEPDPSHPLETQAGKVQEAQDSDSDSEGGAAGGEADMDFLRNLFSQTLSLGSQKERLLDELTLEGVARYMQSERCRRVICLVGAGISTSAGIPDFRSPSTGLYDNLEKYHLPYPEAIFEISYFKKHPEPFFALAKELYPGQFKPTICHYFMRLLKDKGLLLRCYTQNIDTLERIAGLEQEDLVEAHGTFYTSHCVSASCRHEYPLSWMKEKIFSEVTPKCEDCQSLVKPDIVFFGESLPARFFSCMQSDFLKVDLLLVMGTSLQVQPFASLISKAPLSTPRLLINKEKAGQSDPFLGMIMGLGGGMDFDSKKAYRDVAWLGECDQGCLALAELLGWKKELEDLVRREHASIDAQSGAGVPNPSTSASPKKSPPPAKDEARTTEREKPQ
As to the kind of experiment: Inhibition of human recombinant SIRT2 assessed as reduction in NAD+-dependent deacetylase activity using Arg-His-Lys-Lys(epsilon-acetyl)-AMC substrate and NAD+ by fluorescence based assay.

In data set [21] the target is T1, NAD-dependent protein deacylase sirtuin-6. The experiment in a line: Inhibition of SIRT6 in human PBMC cells assessed as increase in H3K9 acetylation at 200 uM incubated for 24 hrs by immunoblotting relative to untreated control. Format: cell-based.
The target is the same in data set [22]. As to the kind of experiment: Inhibition of SIRT6 in human PBMC cells assessed as reduction in staphylococcal enterotoxin B-induced cell proliferation at 200 uM incubated for 120 hrs by ATPlite assay. Format: cell-based.
The subject of data set [23] is BXPC-3. As to the kind of experiment: Toxicity in human BxPC3 cells assessed as reduction in cell viability at 30 uM incubated for 72 hrs by Cell-titer96 aqueous one assay. Format: cell-based. The note with it: bxpc-3, 72 h.
Data set [24] has as its target T1, NAD-dependent protein deacylase sirtuin-6. As to the kind of experiment: Inhibition of SIRT6 in human PBMC cells assessed as reduction in PHA-induced cell proliferation at 200 uM incubated for 120 hrs by ATPlite assay. Format: cell-based.
For data set [25] the target is unchanged. As to the kind of experiment: Inhibition of SIRT6 in human PBMC cells assessed as increase in H3K56 acetylation at 200 uM incubated for 24 hrs by immunoblotting relative to untreated control. Format: cell-based.
Data set [26] shares this target. As to the kind of experiment: Inhibition of SIRT6 in human PBMC cells assessed as reduction in staphylococcal enterotoxin B-induced cell proliferation by measuring CFSE signal level at 200 uM incubated for 120 hrs by CFSE staining based flow FACS assay (reference value: 65%). Further details: scale not given: the % may be the effect or the level left.
Data set [27] shares this target. As to the kind of experiment: Competitive inhibition of human recombinant SIRT6 assessed as reduction in NAD+-dependent deacetylase activity at 50 uM using fixed Arg-His-Lys-Lys(epsilon-acetyl)-AMC substrate and varying NAD+ by fluorescence based assay based double-reciprocal plot.
The target is the same in data set [28]. As to the kind of experiment: Inhibition of SIRT6 in human BxPC3 cells assessed as potentiation of gemcitabine-induced cytotoxicity at 30 uM incubated for 72 hrs by Cell-titer96 aqueous one assay. Type of data set: cell-based.
The target is the same in data set [29]. The experiment in a line: Competitive inhibition of human recombinant SIRT6 assessed as reduction in NAD+-dependent deacetylase activity at 50 uM using varying Arg-His-Lys-Lys(epsilon-acetyl)-AMC substrate and fixed NAD+ by fluorescence based assay based double-reciprocal plot.
The target is the same in data set [30]. The experiment in a line: Inhibition of SIRT6 in human PBMC cells assessed as reduction in PHA-induced cell proliferation by measuring CFSE signal level at 200 uM incubated for 120 hrs by CFSE staining based flow FACS assay (reference value: 66%). Set-up: scale not given: the % may be the effect or the level left.

Converted amounts (≈) assume the structure as drawn. The source made the active and inactive calls. No cut-off for these calls is given here.

T1 sequence (Q8N6T7 whole entry): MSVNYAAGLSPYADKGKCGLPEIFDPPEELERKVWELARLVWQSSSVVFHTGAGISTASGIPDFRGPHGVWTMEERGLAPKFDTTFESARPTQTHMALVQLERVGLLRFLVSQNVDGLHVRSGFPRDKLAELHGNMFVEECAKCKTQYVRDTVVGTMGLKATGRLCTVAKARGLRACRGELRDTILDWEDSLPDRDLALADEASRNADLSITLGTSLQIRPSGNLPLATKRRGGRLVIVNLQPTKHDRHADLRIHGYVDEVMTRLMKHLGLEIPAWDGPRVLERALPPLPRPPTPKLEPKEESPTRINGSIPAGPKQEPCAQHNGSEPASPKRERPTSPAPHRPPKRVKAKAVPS

For `O=C(Nc1ccc(C(=O)O)c(O)c1)c1cccc(NC(=O)c2ccco2)c1`, the inhibition in [1] is 62%.

In the case of `O=C(O)c1cccc(NC(=O)c2cccc(NC(=O)C3CCCO3)c2)c1` (stereo not given), in [1], the inhibition entry is “inactive”.

As to `O=C(Nc1ccc(O)c(C(=O)O)c1)c1cccc(NC(=O)c2ccco2)c1`, the fold change (FC) in data set [2] worked out at 2.1; in data set [3] it was 1.3. Moreover, the Ratio IC50 is 8.44 in data set [4] and 17.7 in data set [6]. The inhibition in data set [5] was 52%.

For `CCC(=O)Nc1ccc(C(=O)Nc2ccc(C(=O)O)c(O)c2)cc1`, the inhibition in [1] was found to be 70%.

Consider `CCC(CC)C(=O)Nc1cccc(C(=O)Nc2cccc(C(=O)O)c2)c1`, for which the inhibition in [1] was found to be 54%.

As for `Cc1ccc(C(=O)O)cc1NC(=O)c1cccc(NC(=O)c2ccco2)c1`, in data set [1], the inhibition came out at 4%.

For the molecule `Cc1cc(O)c(C(=O)O)cc1S(=O)(=O)Nc1ccc(NC(=O)NCC2CCCO2)cc1` (stereo not given), the inhibition in data set [1] came out at 17%.

As to `O=C(Cc1cccs1)Nc1cccc(C(=O)Nc2cccc(C(=O)O)c2)c1`, in data set [1], the inhibition result is “inactive”.

On to `O=C(Nc1ccc(O)cc1C(=O)O)c1ccc(N2C(=O)c3ccccc3C2=O)cc1`, for which the solubility in data set [7] came out at 5 µg/mL (≈ 12.4 µM); in data set [8], 70 µg/mL (≈ 174 µM); in data set [12], 50 µg/mL (≈ 124 µM); in data set [17], 50 µg/mL (≈ 124 µM). The results for the inhibition in data set [1] and in data set [5] were 100% and 13%, respectively. Further, the values for the free fraction (fraction unbound) at 10 ug/ml in data set [9] and in [10] were less than 0.001 and less than 0.01, respectively. Besides, the fold change (FC) is 0.9 in data set [2] and 1.1 in data set [3]. The fraction unbound at 1 ug/ml in data set [11] is less than 0.01; in data set [19], less than 0.001. Further, the IC50 in [13] was found to be 424 µM; in data set [16], 20 µM; in data set [20], 333 µM. For the same molecule, in data set [14], the logP was determined as 3.6. Besides, in data set [15], the pKa amounted to 3.22. Also, the Ratio IC50 in [4] is 16.6; in data set [6], 21.2. In addition, the half-life at 1 µM in data set [18] was found to be 7.7 h.

For `CC(=O)Nc1ccc(NS(=O)(=O)c2ccc(O)c(C(=O)O)c2)cc1`, in data set [1], the inhibition result is “inactive”.

For `O=C(O)c1cc(NC(=O)c2cccc(N3C(=O)CCC3=O)c2)cc(C(=O)O)c1`, the inhibition in [1] came to 68%.

In the case of `O=C(Nc1ccc(O)c(C(=O)O)c1)c1cccc(N2C(=O)CCS2(=O)=O)c1`, in data set [1], the inhibition turned out to be 54%.

For the molecule `O=C(Nc1ccc(C(=O)O)c(O)c1)c1ccc(N2C(=O)c3ccccc3C2=O)cc1`, the inhibition in [1] came to 17%.

Turning to `O=C(Nc1ccc(O)c(C(=O)O)c1)c1ccc(NC(=O)C2CC2)cc1`, the inhibition in [1] came to 50%.

Take `O=C(Nc1ccc(O)c(C(=O)O)c1)c1ccc(N2C(=O)CCS2(=O)=O)cc1`: the inhibition in data set [1] amounted to 89%.

Regarding `Cc1c(NC(=O)c2cccc(NC(=O)c3ccco3)c2)cccc1C(=O)O`, the inhibition in data set [1] was determined as 18%.

As to `O=C(Nc1ccc(C(=O)O)c(O)c1)c1cccc(N2C(=O)CCS2(=O)=O)c1`, the inhibition in data set [1] stood at 44%.

`CC(=O)Nc1cccc(NS(=O)(=O)c2cc(C(=O)O)c(O)cc2C)c1`: the inhibition result in [1] is “inactive”.

Regarding `O=C(O)c1cccc(NC(=O)c2cccc(N3C(=O)CCS3(=O)=O)c2)c1`, in [1], the inhibition turned out to be 5%.

In the case of `O=C(Nc1ccc(C(=O)O)c(O)c1)c1ccc(N2C(=O)CCS2(=O)=O)cc1`, the inhibition in data set [1] worked out at 100%.

Consider `O=C(Nc1ccc(C(=O)O)c(O)c1)c1ccc(NC(=O)c2ccco2)cc1`, for which the inhibition in data set [1] stood at 100%; in data set [5], 80%. The inhibition result in data set [21], in data set [22], in data set [24], in [25], in data set [27] and in data set [28] was “Active” each time. In data set [29], the inhibition entry was “Active”. In addition, the fold change (FC) in data set [2] is 2.5; in data set [3], 1.7. Besides, the Activity result was “Non-Toxic” in data set [23], 27% in [26] and 29% in data set [30]. In addition, the figures for the half-maximal inhibitory concentration (IC50) in [13] and in data set [20] were 599 µM and 482 µM, respectively.

In the case of `O=C(O)c1cccc(NC(=O)c2cccc(NC(=O)c3cccs3)c2)c1`, the inhibition in [1] was 39%.
